The results in this text go back to patent US7799954B2, “Dicarbonyl derivatives and methods of use” (Abraxis BioScience, LLC, priority 2006, dated 2010).

For orientation: IC50 means the point on the concentration scale where inhibition reaches its midpoint.

Each structure is given as a SMILES string.

The first test concerns MX-1 (human breast carcinoma) cells. In words: in vitro growth inhibition, Promega CellTiter Blue Cell Viability Assay. The format is cell-based. The note with it: MX1, 72 h. Here is the method: The cytotoxicity assay was quantitated using the Promega CellTiter Blue Cell Viability Assay. Briefly, cells (5000 cells/well) were plated onto 96-well microtiter plates in RPMI 1640 medium supplemented with 10% FBS and incubated at […] in a humidified 5% CO2 atmosphere. After 24 h, cells were exposed to various concentrations of compound in DMSO and cultured for another 72 h. 100 ul of media were removed and 20 ul of Promega CellTiter Blue reagent were added to each well and shaken to mix. After 4 hours of incubation at 37° C. in a humidified 5% CO2 atmosphere, the plates were read at 544 ex/620 em. The fluorescence produced is proportional to the number of viable cells. After plotting fluorescence produced against drug concentration, the IC50 was calculated as the […] of the resulting non-linear regression.
In general terms: Alamar Blue is a resazurin reagent that responds to reducing activity.
`C/C=C/C(=O)C(C)C1CCC=CC1=O` (centres unmarked) [Compound 20] yielded a half-inhibitory concentration (IC50) of 0.52 µM.
`O=C(/C=C/c1cccc(Cl)c1)CCC(=O)/C=C/c1cccc(Cl)c1` [Compound 14] displayed a 50% inhibitory concentration (IC50) of 55.7 µM.
`C/C=C/C(=O)C(C)C(C)C(=O)/C=C/C` (centres unmarked) [Compound 7] showed a half-maximal inhibitory concentration (IC50) of 2.63 µM.
Same read-out and setting: in the case of `COc1ccc(/C=C/C(=O)/C=C/C(=O)N2CCN(c3ccccc3)CC2)cc1OC` [Compound 38] it was 0.25 µM; in that of `COc1cc(/C=C/C(=O)/C=C/C(=O)O)cc(OC)c1OC` [Compound 30], 34.2 µM; in that of `O=C(O)/C=C/C(=O)/C=C/c1ccccc1` [Compound 28], 3.96 µM.
`COc1ccc(/C=C/C(=O)CC2CCC=CC2=O)cc1OC` (centres unmarked) [Compound 23] yielded an IC50 of 0.17 µM.
Same read-out and setting: with `O=C1OC(c2ccccc2)CC1C1CC(c2ccccc2)OC1=O` (centres unmarked) [Compound 9] the figure was 472 µM; with `O=C(/C=C/c1ccc2c(c1)OCO2)CC1CCC=CC1=O` (centres unmarked) [Compound 24], 0.7 µM.
`CC1(C)C=CC(=O)C(C2CC(C)(C)C=CC2=O)C1` (centres unmarked) [Compound 2] showed an IC50 of 56.8 µM.
`O=C(CCC(=O)C1=CCCCC1)C1=CCCCC1` [Compound 10]: the half-inhibitory concentration (IC50) is greater than 1000 µM.
Molecule `COc1ccc2c(c1)CCC(C1CCc3cc(OC)ccc3C1=O)C2=O` (centres unmarked) [Compound 5] displayed a half-maximal inhibitory concentration (IC50) greater than 1000 µM.
`COc1ccc(/C=C/C(=O)/C=C/C(=O)O)cc1OC` [Compound 29] registered an IC50 of 29 µM.
The molecule `O=C1c2ccccc2CCC1C1CCc2ccccc2C1=O` (centres unmarked) [Compound 6] had an IC50 greater than 1000 µM.
`O=C(/C=C/c1ccccc1)CC1CCC=CC1=O` (centres unmarked) [Compound 21] came in with an IC50 of 0.42 µM.
The molecule `CN(C)C1=CC(=O)C(C2C(=O)C=C(N(C)C)CC2(C)C)C(C)(C)C1` (centres unmarked) [Compound 1] displayed a half-maximal inhibitory concentration (IC50) greater than 1000 µM.
The same measure, in the same setting: in the case of `COc1ccc(/C=C/C(=O)/C=C/C(=O)N2CCN(c3ccncc3)CC2)cc1OC` [Compound 37] it was 0.12 µM.
Turning to `CC(C(=O)c1ccccc1)C(C)C(=O)c1ccccc1` (centres unmarked) [Compound 12], the half-maximal inhibitory concentration (IC50) was greater than 1000 µM.
The same measure, in the same setting: in the case of `CC(C)=CC(=O)CCC(=O)C=C(C)C` [Compound 11] it was 10.3 µM; in that of `CCCC/C=C/C(=O)CCC(=O)/C=C/CCCC` [Compound 15], 7.99 µM.
`O=C(/C=C/c1ccccc1)CCC(=O)/C=C/c1ccccc1` [Compound 13] showed an IC50 of 37.9 µM.
In turn, `CCOC1=CC(=O)C(C2CCC(OCC)=CC2=O)CC1` (centres unmarked) [Compound 4] displayed an IC50 greater than 1000 µM.
`O=C1CCC(c2ccccc2)CC1C1CC(c2ccccc2)CCC1=O` (centres unmarked) [Compound 3]: the IC50 stood at 29.7 µM.

The test is the same for the next values; noted with them: MX1, MX-1 cells, 72 h exposure, CellTiter Blue fluorescence 544 ex/620 em, read-out: IC50.
For the molecule `CC(C)=CC(=O)CC1CCC=CC1=O` (centres unmarked) [Compound 19], the half-maximal inhibitory concentration (IC50) amounted to 1.04 µM.
As to `CCOC(=O)/C=C/C(=O)/C=C/c1ccccc1` [Compound 31], the half-maximal inhibitory concentration (IC50) is 2.17 µM.
On to `COc1ccc(/C=C/C(=O)CCC(=O)/C=C/c2ccc(OC)c(OC)c2)cc1OC` [Compound 17], for which the IC50 was 73.1 µM.
On the same count and under the same terms, with `CCOC(=O)CCC(=O)/C=C/c1ccccc1` [Compound 27] the figure was 77.5 µM.
On to `O=C(O)c1cc(/C=C/c2ccccc2)no1` [Compound 50], for which the IC50 was greater than 1000 µM.
Regarding `CON=C(/C=C/C(=O)N1CCN(C)CC1)/C=C/c1ccc(OC)c(OC)c1` [Compound 46], the IC50 amounted to 482 µM.
With `CCOC(=O)c1cc(/C=C/c2ccccc2)no1` [Compound 51], the half-maximal inhibitory concentration (IC50) was 533 µM.
As for `CC(C)=C/C=C/C(=O)CCC(=O)/C=C/C=C(C)C` [Compound 16], the IC50 stood at 16.2 µM.
For `CCCN(C)C(=O)c1cc(/C=C/c2ccccc2)no1` [Compound 52], the half-inhibitory concentration (IC50) was 195 µM.
Turning to `CO/N=C(\C=C\c1ccc(OC)c(OC)c1)CC1CCC=C/C1=N\OC` (centres unmarked) [Compound 42], the IC50 amounted to 128 µM.
On to `CCCN(C)C(=O)/C=C/C(/C=C/c1ccccc1)=N\OC` [Compound 43], for which the 50% inhibitory concentration (IC50) is 171 µM.
`C/C=C/C(=O)C(C)CC(=O)/C=C/c1ccccc1` (centres unmarked) [Compound 22]: the IC50 amounted to 2.07 µM.
For the molecule `O=C(/C=C/c1ccc(O)cc1)CC1CCC=CC1=O` (centres unmarked) [Compound 25], the half-maximal inhibitory concentration (IC50) came out at 0.16 µM.
For the molecule `COc1ccc(/C=C/C(/C=C/C(=O)N2CCN(C)CC2)=NOCc2ccccc2)cc1OC` [Compound 48], the IC50 was found to be 23.4 µM.
Same read-out and setting: in the case of `COc1cc(/C=C/C(=O)/C=C/C(=O)N2CCN(c3ccncc3)CC2)cc(OC)c1OC` [Compound 40] it was 0.48 µM; in that of `O=C(/C=C/C(=O)Nc1ccccc1)/C=C/c1ccccc1` [Compound 33], 3.25 µM.
For the molecule `CCCN(C)C(=O)/C=C/C(=O)/C=C/c1ccccc1` [Compound 32], the IC50 was 0.39 µM.
Consider `COC(=O)/C=C/C(=O)Nc1ccc(F)cc1` [Compound 41], for which the concentration for half-maximal inhibition (IC50) turned out to be 121 µM.
Consider `COc1ccc(/C=C/C(=O)/C=C/C(=O)Nc2ccccc2)cc1OC` [Compound 35], for which the IC50 was 0.89 µM.
Regarding `O=C(/C=C/c1cccc(C(F)(F)F)c1)CC1CCC=CC1=O` (centres unmarked) [Compound 26], the half-maximal inhibitory concentration (IC50) is 2.59 µM.
On to `COc1cc(/C=C/C(=O)/C=C/C(=O)N2CCN(C)CC2)cc(OC)c1OC` [Compound 39], for which the half-inhibitory concentration (IC50) is 0.8 µM.
Turning to `COc1ccc(/C=C/C(/C=C/C(=O)N2CCN(C)CC2)=NOc2ccccc2)cc1OC` [Compound 47], the 50% inhibitory concentration (IC50) came out at 8.73 µM.
The same measure, in the same setting: in the case of `COc1ccc(/C=C/C(=O)/C=C/C(=O)N2CCN(C)CC2)cc1OC` [Compound 36] it was 0.17 µM; in that of `O=C1c2cc(F)ccc2OCC1C1COc2ccc(F)cc2C1=O` (centres unmarked) [Compound 18], greater than 1000 µM.
The same measure, in the same setting: in the case of `CCCN(C)C(=O)/C=C/C(=O)/C=C/c1ccc(OC)c(OC)c1` [Compound 34] it was 0.28 µM; in that of `CON=C(/C=C/C(=O)N1CCN(C)CC1)/C=C/c1cc(OC)c(OC)c(OC)c1` [Compound 49], greater than 1000 µM.
Consider `COc1ccc(/C=C/C(/C=C/C(=O)N2CCN(C)CC2)=NO)cc1OC` [Compound 45], for which the 50% inhibitory concentration (IC50) was found to be 371 µM.
